pEC50: −log10 of the molar value. Like-named read-outs stand apart in the source and are kept apart here.
Key:
LFA-1 = biological target: T1, LFA-1 (Homo sapiens, UniProt P20701); settings: >90% occupancy of LFA-1; cited from earlier work
T1 construct: >90% occupancy of LFA-1 with efalizumab led to a greater than 50% clinical improvement in PASI score in a clinical trial; host or cells: leukocytes of psoriasis patients (in vivo)

[1] = tested on: human mononuclear cells (PBMC) stimulated with staphylococcal enterotoxin B (SEB); assay: cells; assay type: cell-based

T1 sequence (P20701 26-1170): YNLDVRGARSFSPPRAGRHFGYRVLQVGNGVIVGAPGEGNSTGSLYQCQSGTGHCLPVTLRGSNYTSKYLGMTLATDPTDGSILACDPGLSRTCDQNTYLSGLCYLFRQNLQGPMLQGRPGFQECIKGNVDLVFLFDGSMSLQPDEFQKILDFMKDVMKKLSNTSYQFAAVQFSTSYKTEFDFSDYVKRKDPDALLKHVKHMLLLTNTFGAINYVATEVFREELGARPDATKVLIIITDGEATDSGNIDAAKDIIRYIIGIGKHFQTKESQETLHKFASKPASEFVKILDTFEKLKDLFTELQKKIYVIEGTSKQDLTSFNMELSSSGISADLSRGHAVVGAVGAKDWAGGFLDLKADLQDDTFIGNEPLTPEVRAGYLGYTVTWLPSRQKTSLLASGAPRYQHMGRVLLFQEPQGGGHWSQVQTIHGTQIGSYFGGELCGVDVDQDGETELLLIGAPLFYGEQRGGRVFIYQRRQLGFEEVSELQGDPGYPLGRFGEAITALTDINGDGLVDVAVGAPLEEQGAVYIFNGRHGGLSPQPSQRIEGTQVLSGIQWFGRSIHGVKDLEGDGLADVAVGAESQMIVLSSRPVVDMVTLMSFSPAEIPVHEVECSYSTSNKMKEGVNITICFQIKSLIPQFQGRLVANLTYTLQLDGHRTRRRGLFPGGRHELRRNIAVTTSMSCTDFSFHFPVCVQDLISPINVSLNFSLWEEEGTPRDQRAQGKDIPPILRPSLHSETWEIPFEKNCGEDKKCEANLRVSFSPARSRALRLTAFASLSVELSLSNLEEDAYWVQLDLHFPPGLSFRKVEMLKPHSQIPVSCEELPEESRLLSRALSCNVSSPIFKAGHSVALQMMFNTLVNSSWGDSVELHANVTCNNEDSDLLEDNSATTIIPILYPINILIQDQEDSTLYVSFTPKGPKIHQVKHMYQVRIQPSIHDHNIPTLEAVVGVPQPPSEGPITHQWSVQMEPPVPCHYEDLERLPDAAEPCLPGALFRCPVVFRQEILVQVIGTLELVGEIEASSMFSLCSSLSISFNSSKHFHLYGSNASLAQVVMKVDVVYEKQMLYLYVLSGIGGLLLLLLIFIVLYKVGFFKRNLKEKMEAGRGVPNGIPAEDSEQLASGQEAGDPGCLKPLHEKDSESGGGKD
T1 sequence (P05107 23-769 partner): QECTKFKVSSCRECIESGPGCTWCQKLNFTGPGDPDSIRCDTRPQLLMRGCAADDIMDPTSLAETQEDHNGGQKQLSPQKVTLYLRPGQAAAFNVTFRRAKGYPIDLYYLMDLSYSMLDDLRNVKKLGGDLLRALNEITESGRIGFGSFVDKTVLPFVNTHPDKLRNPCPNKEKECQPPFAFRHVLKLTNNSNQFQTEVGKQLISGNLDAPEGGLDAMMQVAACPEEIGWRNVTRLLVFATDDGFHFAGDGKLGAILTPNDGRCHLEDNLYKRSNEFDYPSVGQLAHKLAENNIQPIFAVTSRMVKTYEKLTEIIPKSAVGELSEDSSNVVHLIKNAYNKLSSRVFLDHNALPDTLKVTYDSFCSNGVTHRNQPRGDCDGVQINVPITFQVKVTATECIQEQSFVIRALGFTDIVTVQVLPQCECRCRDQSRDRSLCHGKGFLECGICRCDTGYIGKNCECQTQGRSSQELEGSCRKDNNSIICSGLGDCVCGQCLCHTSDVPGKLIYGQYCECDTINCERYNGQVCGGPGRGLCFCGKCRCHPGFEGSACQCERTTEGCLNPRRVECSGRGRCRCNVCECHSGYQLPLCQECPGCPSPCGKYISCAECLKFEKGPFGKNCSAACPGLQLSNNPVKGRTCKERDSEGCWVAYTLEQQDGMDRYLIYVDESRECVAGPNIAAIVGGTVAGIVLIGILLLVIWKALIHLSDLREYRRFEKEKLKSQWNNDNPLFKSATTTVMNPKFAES

| Compound | clinical improvement in PASI score (LFA-1) | pEC50 ([1]; read-out: EC50 Cytokine Release GM-CSF) | pEC50 ([1]; read-out: EC50 Cytokine Release IFNγ) | pEC50 ([1]; read-out: EC50 Cytokine Release IL-1α) | pEC50 ([1]; read-out: EC50 Cytokine Release IL-1β) | pEC50 ([1]; read-out: EC50 Cytokine Release IL-2) | pEC50 ([1]; read-out: EC50 Cytokine Release IL-3) | pEC50 ([1]; read-out: EC50 Cytokine Release IL-4) | pEC50 ([1]; read-out: EC50 Cytokine Release IL-5) | pEC50 ([1]; read-out: EC50 Cytokine Release IL-6) | pEC50 ([1]; read-out: EC50 Cytokine Release IL-10) | pEC50 ([1]; read-out: EC50 Cytokine Release IL-12p40) | pEC50 ([1]; read-out: EC50 Cytokine Release IL-13) | pEC50 ([1]; read-out: EC50 Cytokine Release IP-10) | pEC50 ([1]; read-out: EC50 Cytokine Release MCP-1) | pEC50 ([1]; read-out: EC50 Cytokine Release MIP-1α) | pEC50 ([1]; read-out: EC50 Cytokine Release TNF-α) |
| --- | --- | --- | --- | --- | --- | --- | --- | --- | --- | --- | --- | --- | --- | --- | --- | --- | --- |
| efalizumab: anti-LFA-1 (CD11a) antibody evaluated in plaque psoriasis | greater than 50% | – | – | – | – | – | – | – | – | – | – | – | – | – | – | – | – |
| O=C(NC(Cc1cc(=O)[nH]c2ccccc12)C(=O)O)c1ccc(Cl)cc1 (centres unmarked) [Rebamipide] | – | < 3.00 | < 3.00 | < 3.00 | < 3.00 | < 3.00 | < 3.00 | < 3.00 | < 3.00 | < 3.00 | < 3.00 | < 3.00 | < 3.00 | < 3.00 | < 3.00 | < 3.00 | < 3.00 |
